Test results: patent US20240041827A1, “COMPOSITIONS FOR THE TREATMENT OF FAT RELATED CONDITIONS AND DISORDERS” (priority 2020, published 2024)

Tests used:
[1] = system: Wi-38 fibroblasts; experiment: Cell Titer Glo 2.0 cytotoxicity assay on Wi-38 fibroblasts; type: cell-based; settings: cytotoxic reference control; after 24 hours of incubation
[2] = system: human visceral preadipocytes; experiment: in vitro; settings: for Average RZL-012 and collagenase induced cell death (% vs untreated cells): RZL12 0 μM, 24 h of incubation
Method: Human visceral preadipocytes were seeded in 96-well white clear bottom plates at 10,000 cells per well in 100 μl pre-adipocyte medium and incubated overnight at 37° C. 5% CO2. On the following day, adipogenic differentiation was induced by addition of 100 μl/well differentiation medium and incubation continued for 5 days. Adipogenic differentiation was verified by microscopic evaluation, addition of adipored reagents and fluorescent measurement at Ex485 nm/Em572 nm. […] Staurosporine (1 μM) and 0.2% DMSO were used as controls. Plates were incubated at 37° C. 5% CO2 for 2, 6 and 24 hours. Following incubation, cytotoxicity was measured using Cell Titer Glo 2.0 (Promega).
Test Item RZL-12 (1-300 μM) was prepared on the day of the testing as 150 mM stock solutions in DMSO. The 150 mM represents a 500×stock of the highest desired tested concentration. The 150 mM stock solution was first serially diluted in DMSO to acquire 500×stock solutions for each of the RZL-012 concentrations. The 500×stock solutions were then diluted 1:25 in medium to acquire 20×intermediate stock solutions. Finally, the 20×intermediate stock solutions were further diluted 1:20 in the assay (on the plate) that included seeded cells.
The 600 μM represents a 20× stock of the highest desired tested concentration. […] Finally, the 20×intermediate stock solutions were further diluted 1:20 in the assay plate that included seeded cells.
Human visceral pre-adipocytes (HPrAD-vis): HPrAD-vis cells (Lonza cat #PT-5005) were thawed at 37° C. and transferred into 50 ml tubes containing pre-adipocytes PGM-2 growth medium (PBM-2, 10% FBS, 1-glutamine, GA-1000). Cells were centrifuged at 300 g for 10 minutes, the supernatant was removed (Leaving about 1 ml of wash medium for not disrupting the cells) and 2 ml fresh PGM-2 medium was added. After resuspension, cells were counted and seeded in T-75 and T25 flasks at a density of 9,000 cells/cm^2 ([…], 225,000 cells/T25 flask). Medium was changed every 2-3 days until reached confluence of 70%.
Cells were sub-cultured only once, as soon as they reached 70% confluence. For this purpose, the culture medium of each flask was removed and cells were washed once with 5 ml PBS. The flask was shaken to ensure that the entire surface was covered and the PBS was removed. Then, 3 ml/T75 flask or 1 ml/T25 flask of fresh dedicated Trypsin/EDTA solution (from Lonza) was added and the flasks were incubated for 3-4 minutes at RT until ˜90% cells were detached. The Trypsin/EDTA solution was then neutralized by addition of 6 ml/T75 flask or 3 ml/T25 flask of full PGM-2 growth medium. Cells were collected in 50 ml tubes and centrifuged 10 minutes at 300 g. The supernatant was removed and the cells were resuspended in 3 ml fresh medium. Cells were then counted using a haemacytometer slide after being diluted 1:2 in trypan blue (SIGMA). For sub-culturing, cells were seeded in new T75 flasks at a density of 9,000 cells/cm^2 containing 15 ml fresh growth medium. Alternatively, the cells were seeded in 96-well culture plates at a density of 10,000 cells/well for the cell treatments.
HPrAD-vis cells: HPrAD-vis passaged once were seeded in 96-well plates as described above (10000cells/well in 100 μl medium) and allowed to settle overnight at 37° C., 5% CO2. Following day, adipogenic differentiation was induced by addition of 100 μl/well differentiation medium and incubated for 5 days. Adipogenic differentiation was verified by microscopic evaluation, addition of adipored reagents and fluorescent measurement at Ex485 nm/Em572 nm. In the morning of day 6, test and reference items were prepared as described above. Cells' medium was replaced with 90 μl fresh differentiation medium. […] Staurosporine (1 μM) and 0.2% DMSO were used as controls. Plates were incubated at 37° C. 5% CO2 for 2, 6 and 24 hours. Following incubation, cell viability was determined using the CellTiter-Gg® viability reagent (Promega) with reading of plates for luminescence. […]

| Molecule | maximal cell death [1] [%] | maximal cell death ([2]; 24 h, 1 µM) [%] | Average RZL-012 and collagenase induced cell death (% vs untreated cells) ([2]; Collagenase 0.1 μM) [%] | Average RZL-012 and collagenase induced cell death (% vs untreated cells) ([2]; Collagenase 0.3 μM) [%] | Average RZL-012 and collagenase induced cell death (% vs untreated cells) ([2]; Collagenase 1 μM) [%] | Average RZL-012 and collagenase induced cell death (% vs untreated cells) ([2]; Collagenase 3 μM) [%] | Average RZL-012 and collagenase induced cell death (% vs untreated cells) ([2]; Collagenase 10 μM) [%] | Average RZL-012 and collagenase induced cell death (% vs untreated cells) ([2]; Collagenase 30 μM) [%] | concentrations at which the cytotoxic effect was observed ([2]; at all time points (2, 6, 24 h)) [nM] | effect of collagenase on RZL-012 cytotoxicity ([2]; collagenase 10 μM and 30 μM, 2 h time point) | effect of collagenase added together with RZL-012 on cell cytotoxicity ([2]; collagenase 0.1-1 μM, adipocytes, 6 h and 24 h time points, vs each compound alone) |
| --- | --- | --- | --- | --- | --- | --- | --- | --- | --- | --- | --- |
| CN[C@@H]1C[C@H]2O[C@@](C)([C@@H]1OC)n1c3ccccc3c3c4c(c5c6ccccc6n2c5c31)C(=O)NC4 [staurosporine, reference compound] | 89 | 89 |  |  |  |  |  |  |  |  |  |
| Collagenase |  |  | 7.28 | 6.53 | 25.57 | 33.27 | 65.68 | 79.93 | > 3000 | attenuated RZL-012 cytotoxicity | attenuate cell cytotoxicity |
